Results: ChEMBL document CHEMBL3994622, “Design and synthesis of new RAF kinase-inhibiting antiproliferative quinoline derivatives. Part 2: Diarylurea derivatives” (Eur J Med Chem, 2017)

Tests used:
Format in all cases: functional
[1] = system: SNB-75; test: Growth inhibition of human SNB75 cells incubated for 48 hrs by sulforhodamine B assay; details: SNB-75, 48 h
[2] = system: 786-0; test: Growth inhibition of human 786-0 cells incubated for 48 hrs by sulforhodamine B assay; details: 786-0, 48 h
[3] = system: OVCAR-3; test: Growth inhibition of human OVCAR3 cells incubated for 48 hrs by sulforhodamine B assay; details: OVCAR-3, 48 h
[4] = system: TK-10; test: Growth inhibition of human TK10 cells incubated for 48 hrs by sulforhodamine B assay; details: TK-10, 48 h
[5] = system: SK-MEL-28; test: Growth inhibition of human SK-MEL-28 cells incubated for 48 hrs by sulforhodamine B assay; details: SK-MEL-28, 48 h
[6] = system: UO-31; test: Growth inhibition of human UO31 cells incubated for 48 hrs by sulforhodamine B assay; details: UO-31, 48 h
[7] = system: UACC-257; test: Growth inhibition of human UACC257 cells incubated for 48 hrs by sulforhodamine B assay; details: UACC-257, 48 h
[8] = system: DU-145; test: Growth inhibition of human DU145 cells incubated for 48 hrs by sulforhodamine B assay; details: DU-145, 48 h
[9] = system: BT-549; test: Growth inhibition of human BT549 cells incubated for 48 hrs by sulforhodamine B assay; details: BT-549, 48 h
[10] = system: HOP-92; test: Growth inhibition of human HOP92 cells incubated for 48 hrs by sulforhodamine B assay; details: HOP-92, 48 h
[11] = system: SF-539; test: Growth inhibition of human SF539 cells incubated for 48 hrs by sulforhodamine B assay; details: SF-539, 48 h
[12] = system: SF-295; test: Growth inhibition of human SF295 cells incubated for 48 hrs by sulforhodamine B assay; details: SF-295, 48 h
[13] = system: U-251; test: Growth inhibition of human U251 cells incubated for 48 hrs by sulforhodamine B assay; details: U-251, 48 h
[14] = system: HL-60(TB); test: Growth inhibition of human HL-60(TB) cells incubated for 48 hrs by sulforhodamine B assay; details: HL-60, 48 h
[15] = system: ACHN; test: Growth inhibition of human ACHN cells incubated for 48 hrs by sulforhodamine B assay
[16] = system: OVCAR-8; test: Growth inhibition of human OVCAR8 cells incubated for 48 hrs by sulforhodamine B assay; details: OVCAR-8, 48 h
[17] = system: NCI-H23; test: Growth inhibition of human NCI-H23 cells incubated for 48 hrs by sulforhodamine B assay; details: NCI-H23, 48 h
[18] = system: SW-620; test: Growth inhibition of human SW620 cells incubated for 48 hrs by sulforhodamine B assay; details: SW-620, 48 h
[19] = system: RXF 393; test: Growth inhibition of human RXF393 cells incubated for 48 hrs by sulforhodamine B assay; details: RXF 393, 48 h
[20] = system: RPMI-8226; test: Growth inhibition of human RPMI8226 cells incubated for 48 hrs by sulforhodamine B assay; details: RPMI-8226, 48 h
[21] = system: CCRF-CEM; test: Growth inhibition of human CCRF-CEM cells incubated for 48 hrs by sulforhodamine B assay
[22] = system: MDA-MB-231; test: Growth inhibition of human MDA-MB-231 cells incubated for 48 hrs by sulforhodamine B assay; details: MDA-MB-231, 48 h
[23] = system: PC-3; test: Growth inhibition of human PC3 cells incubated for 48 hrs by sulforhodamine B assay; details: PC-3, 48 h
[24] = system: K562; test: Growth inhibition of human K562 cells incubated for 48 hrs by sulforhodamine B assay; details: K562, 48 h
[25] = system: A549; test: Growth inhibition of human A549/ATCC cells incubated for 48 hrs by sulforhodamine B assay; details: A549, 48 h
[26] = system: SR; test: Growth inhibition of human SR cells incubated for 48 hrs by sulforhodamine B assay
[27] = system: HCT-116; test: Growth inhibition of human HCT116 cells incubated for 48 hrs by sulforhodamine B assay; details: HCT-116, 48 h
[28] = system: KM12; test: Growth inhibition of human KM12 cells incubated for 48 hrs by sulforhodamine B assay; details: KM12, 48 h
[29] = system: T47D; test: Growth inhibition of human T47D cells incubated for 48 hrs by sulforhodamine B assay
[30] = system: HT-29; test: Growth inhibition of human HT-29 cells incubated for 48 hrs by sulforhodamine B assay; details: HT-29, 48 h
[31] = read-out: LC50 (the source's name)

Question: Which GI50 [1] does the source give for `Cc1nc2cc(O)c(O)cc2cc1Oc1ccc(NC(=O)Nc2ccc(Cl)c(Cl)c2)cc1` here?
Answer: 7.73 µM

Question: And the TGI [1]?
Answer: 28.9 µM

Question: What about the CC50 [1, 31] of the same compound?
Answer: > 32.5 µM

Question: What about the GI50 [2] of the same compound?
Answer: 7.67 µM

Question: And the TGI [2]?
Answer: 18.6 µM

Question: What about the CC50 [2, 31] of the same compound?
Answer: > 32.5 µM

Question: What about the GI50 [3] of the same compound?
Answer: 8.52 µM

Question: What about the TGI [3] of the same compound?
Answer: 19.9 µM

Question: What about the CC50 [3, 31] of the same compound?
Answer: > 32.5 µM

Question: And the GI50 [4]?
Answer: 14.2 µM

Question: And the TGI [4]?
Answer: > 32.5 µM

Question: What about the CC50 [4, 31] of the same compound?
Answer: > 32.5 µM

Question: And the GI50 [5]?
Answer: 9 µM

Question: What about the TGI [5] of the same compound?
Answer: 30.1 µM

Question: What about the CC50 [5, 31] of the same compound?
Answer: > 32.5 µM

Question: What about the GI50 [6] of the same compound?
Answer: 6.97 µM

Question: What about the TGI [6] of the same compound?
Answer: 14.9 µM

Question: What about the CC50 [6, 31] of the same compound?
Answer: 31.9 µM

Question: And the GI50 [7]?
Answer: 7.27 µM

Question: What about the TGI [7] of the same compound?
Answer: 21.3 µM

Question: And the CC50 [7, 31]?
Answer: > 32.5 µM

Question: And the GI50 [8]?
Answer: 7.26 µM

Question: What about the TGI [8] of the same compound?
Answer: 25.2 µM

Question: What about the CC50 [8, 31] of the same compound?
Answer: > 32.5 µM

Question: What about the GI50 [9] of the same compound?
Answer: 7.5 µM

Question: And the TGI [9]?
Answer: > 32.5 µM

Question: And the CC50 [9, 31]?
Answer: > 32.5 µM

Question: And the GI50 [10]?
Answer: 2.85 µM

Question: What about the LC50 [10] of the same compound?
Answer: > 32.5 µM

Question: What about the TGI [10] of the same compound?
Answer: 16.7 µM

Question: And the GI50 [11]?
Answer: 8.86 µM

Question: And the TGI [11]?
Answer: 22.7 µM

Question: What about the CC50 [11, 31] of the same compound?
Answer: > 32.5 µM

Question: And the GI50 [12]?
Answer: 11.4 µM

Question: And the TGI [12]?
Answer: > 32.5 µM

Question: And the CC50 [12, 31]?
Answer: > 32.5 µM

Question: What about the GI50 [13] of the same compound?
Answer: 6.58 µM

Question: And the TGI [13]?
Answer: > 32.5 µM

Question: And the CC50 [13, 31]?
Answer: > 32.5 µM

Question: What about the GI50 [14] of the same compound?
Answer: 9.02 µM

Question: What about the TGI [14] of the same compound?
Answer: 22.4 µM

Question: What about the CC50 [14, 31] of the same compound?
Answer: > 32.5 µM

Question: What about the GI50 [15] of the same compound?
Answer: 3.37 µM

Question: What about the TGI [15] of the same compound?
Answer: 17.9 µM

Question: And the CC50 [15, 31]?
Answer: > 32.5 µM

Question: And the GI50 [16]?
Answer: 5.77 µM

Question: And the TGI [16]?
Answer: > 32.5 µM

Question: What about the CC50 [16, 31] of the same compound?
Answer: > 32.5 µM

Question: And the GI50 [17]?
Answer: 6.97 µM

Question: What about the TGI [17] of the same compound?
Answer: 19.6 µM

Question: And the CC50 [17, 31]?
Answer: > 32.5 µM

Question: What about the GI50 [18] of the same compound?
Answer: 4.9 µM

Question: What about the LC50 [18] of the same compound?
Answer: > 32.5 µM

Question: What about the TGI [18] of the same compound?
Answer: > 32.5 µM

Question: What about the GI50 [19] of the same compound?
Answer: 9.24 µM

Question: What about the TGI [19] of the same compound?
Answer: > 32.5 µM

Question: What about the CC50 [19, 31] of the same compound?
Answer: > 32.5 µM

Question: What about the GI50 [20] of the same compound?
Answer: 7.62 µM

Question: What about the LC50 (lethal concentration, 50% cell kill) [20] of the same compound?
Answer: > 32.5 µM

Question: And the TGI [20]?
Answer: 20.7 µM

Question: And the GI50 [21]?
Answer: 6.19 µM

Question: What about the TGI [21] of the same compound?
Answer: 21.8 µM

Question: And the CC50 [21, 31]?
Answer: > 32.5 µM

Question: And the GI50 [22]?
Answer: 2.49 µM

Question: And the TGI [22]?
Answer: > 32.5 µM

Question: And the CC50 [22, 31]?
Answer: > 32.5 µM

Question: What about the GI50 [23] of the same compound?
Answer: 4.36 µM

Question: What about the TGI [23] of the same compound?
Answer: > 32.5 µM

Question: And the CC50 [23, 31]?
Answer: > 32.5 µM

Question: What about the GI50 [24] of the same compound?
Answer: 6.93 µM

Question: What about the LC50 (concentration killing 50% of cells) [24] of the same compound?
Answer: > 32.5 µM

Question: And the TGI [24]?
Answer: 29.6 µM

Question: What about the GI50 [25] of the same compound?
Answer: 8.99 µM

Question: And the TGI [25]?
Answer: 26.2 µM

Question: What about the CC50 [25, 31] of the same compound?
Answer: > 32.5 µM

Question: And the GI50 [26]?
Answer: 1.56 µM

Question: And the TGI [26]?
Answer: 12.3 µM

Question: What about the CC50 [26, 31] of the same compound?
Answer: > 32.5 µM

Question: What about the GI50 [27] of the same compound?
Answer: 2.24 µM

Question: What about the LC50 (50% lethal concentration) [27] of the same compound?
Answer: > 32.5 µM

Question: And the TGI [27]?
Answer: 13.6 µM

Question: And the GI50 [28]?
Answer: 9.64 µM

Question: What about the TGI [28] of the same compound?
Answer: 32 µM

Question: And the CC50 [28, 31]?
Answer: > 32.5 µM

Question: What about the GI50 [29] of the same compound?
Answer: 11.6 µM

Question: And the TGI [29]?
Answer: > 32.5 µM

Question: And the CC50 [29, 31]?
Answer: > 32.5 µM

Question: And the GI50 [30]?
Answer: 11.9 µM

Question: What about the TGI [30] of the same compound?
Answer: > 32.5 µM

Question: What about the CC50 [30, 31] of the same compound?
Answer: > 32.5 µM
